Test results: US20240082238A1, “COMPOSITIONS AND METHODS FOR TREATING CANCER” (UNIVERSITY OF IOWA RESEARCH FOUNDATION, priority 2021, published 2024)

Tests used:
Hec50co tumors = assay: Antitumor efficacy study, peritumoral SC injection; type: in vivo, athymic Nu/Nu mice
Description: Antitumor efficacy study following subcutaneous injection (SC) at the tumor site (peritumoral). Female athymic Nu/Nu mice were subcutaneously challenged with Hec50co cells (1×10^6 cells/mouse). When mice had palpable tumors, they were randomly distributed into 3 groups: PBS group (n=3), PTX group (n=4), and PTX+CIP2b group (n=4). Then, treatments were administered subcutaneously near the tumor site (i.e., peritumorally) in five doses on days 26, 30, 33, 37, and 40 post-tumor challenge. Each dose consisted of 200 μL of either PBS, 5 mg/kg PTX (Paclitaxel concentrate diluted in DPBS), or 5 mg/kg PTX+5 mg/kg CIP2b (CIP2b in DPBS:Tween-80:ethanol 85:10:5; further dilution was made using DPBS). Body weights and tumor volumes (using Equation 2) were monitored twice a week for up to 2 weeks after the last dose (i.e., up to day 53 post-tumor challenge). On the last day of the study (day 53 post-tumor challenge), mice were euthanized, and tumors were collected and their weights were measured.

caspase 9 = assay: Caspase multiplex activity assay, caspase 9; type: cell-based, human; details: 24 h
Description: Apoptosis and caspase activity. The expression of caspase 3, 8, and 9 was measured using Multiplex Activity Assay Fluorometric Kit (Cat. No. ab219915, Abcam). Briefly, Hec50co cells were plated in 96-well plates at a density of 3000 per well in 100 μL of the complete medium and incubated for 24 hours. After incubation, the medium was removed, and different concentrations either in single or combination of treatments were added (PTX 5 and 10 nM; CIP2b 10, 25, and 50 μM). Cells with treatments were incubated for 24 or 72 hours. Then, the caspase kit reagents were added to the cells and incubated at room temperature for 60 minutes. Fluorescence intensity (at excitation/emission values of 535/620 nm, 490/525 nm, and 370/450 nm for caspase 3, 8, and 9, respectively) was then measured using a SpectraMax M5 microplate reader (Molecular Devices).

level of caspase 9 expression vs untreated (caspase 9; 10 nM PTX): significantly higher
Structure (SMILES): CC(=O)O[C@H]1C(=O)[C@@]2(C)[C@H]([C@H](OC(=O)c3ccccc3)[C@]3(O)C[C@H](OC(=O)[C@H](O)[C@@H](NC(=O)c4ccccc4)c4ccccc4)C(C)=C1C3(C)C)[C@]1(OC(C)=O)CO[C@@H]1C[C@@H]2O [PTX, paclitaxel]
average weight of tumors (Hec50co tumors; day 53, SC treatment): did not show a significant difference against either the untreated group or the combination group | average tumor volumes vs PBS (Hec50co tumors; day 53, 5 mg/kg PTX SC, five doses): smaller than PBS control mice albeit not significantly | expression of caspase 9 vs untreated (caspase 9; 5 nM PTX): not statistically different from untreated cells
